The values below come from US20090304725A1, “Vaccine and Antigen Mimotopes Against Cancerous Diseases Associated with the Carcinoembryonic Antigen CEA” (Medizinische Universitat Wien, priority 2006, published 2009).

Series [1] relates to HT29 CEA overexpressing cells. The series is described as follows: Complement-dependent cytotoxicity (CDC) assay, CytoTox 96. To be noted: highest value corrected to 100%. Format: cell-based. As to the method: (§1) FIG. 6: CDC reaction in vitro. Effects of the mimotope induced antibodies in mediating complement-dependent cytotoxicity. The reaction was determined against the CEA positive cell line HT 29 and against the CEA negative cell line SW 480. Mouse immune sera in different concentrations were tested on the two cell lines. Sera from CEA-MAM immunized mice were used 1:50 (black columns; 1) and 1:100 (white column; 2). The antibody Col-1 (3), the isotype control antibodies IgG2a (4) and IgM (5) were used as negative controls.
(§2) Complement-dependent cytotoxicity (CDC) and antibody-dependent-cytotoxicity (ADCC) effectivity of the antibodies induced by mimotope vaccination were measured with the CytoTox 96 Nonradioactive Cytotoxicity assay (Promega, Madison, Wis.). HT29 CEA overexpressing cells were used as positive target cells. SW480 CEA-negative colon cancer cells served as a negative target control cell line. The number of both target cells was optimized to 2×10^5 cells/ml. For CDC reactions (FIG. 6), pooled fifth immune sera were diluted 1:50 (1) or 1:100 (2) in CytoTox 96 assay medium. Additionally, the antibody Col-1 (3), an IgG2a (4) and an IgM (5) antibody (Sigma, Vienna, Austria) served as negative controls. […] All assay procedures and readouts were done as described in the manufacturers description. […] The results of the cytotoxicity was calculated as follows: […]

In series [2] the test system is HT29 CEA overexpressing cells. Put plainly: Antibody-dependent cytotoxicity (ADCC) assay, CytoTox 96. The series is classed as cell-based. The note with it: pooled fifth immune sera of immunized mice diluted 1:50; naive BALB/c spleen cells as effector cells. As to the method:
(§3) FIG. 7: ADCC reaction in vitro. Effects of the antibody-dependent cytotoxicity. The reaction was determined against the CEA positive cell line HT 29 and against the CEA negative cell line SW 480. The CEA-MAP serum was used 1:50 (black columns; 1). The mice immunized with a control-MAP (2) or alum alone (3) and the Col-1 antibody (4) were used as negative controls.
as §2, with “controls. Spleen cells of naïve BALB/c mice were prepared by mashing the spleen and lysing the erythrocytes with ammonium chloride and used as effector cells.” for “controls.”

Series [3] relates to SW480 CEA-negative colon cancer cells. The series is described as follows: Cytotoxicity assay on CEA-negative control cell line. Format: cell-based. The note with it: sera of immunized mice. As to the method: as §1, §3
Complement-dependent cytotoxicity (CDC) and antibody-dependent-cytotoxicity (ADCC) effectivity of the antibodies induced by mimotope vaccination were measured with the CytoTox 96 Nonradioactive Cytotoxicity assay (Promega, Madison, Wis.). HT29 CEA overexpressing cells were used as positive target cells. […] All assay procedures and readouts were done as described in the manufacturers description. […] The results of the cytotoxicity was calculated as follows: […]

The subject of series [4] is CEA antigen binding to anti-CEA antibody Col-1. Put plainly: Mimicry test, competitive ELISA on coated CEA antigen with Col-1. Also on record: species or system human. The note with it: phages at 5*10^10, 1*10^10, 1*10^9 particles per ml, simultaneously with Col-1. Here is the method:
FIG. 3: Mimicry analysis in ELISA competition assay. Coated CEA antigen is detected by Col-1 antibody, rendering a maximal signal of 1,4. Simultaneous incubation was done with titrated phage clones (white columns highest, grey: medium, black: least concentration of phage clones). Bound Col-1 was detected with anti-mouse IgG-peroxidase labelled. X-axis: clone names, Y-axis: colour intensity at OD450-630 nm.
The CEA antigen (human purified; Sigma, St. Louis) was used for coating ELISA plates. After blocking and washing, mimotopes phages were added to wells in three concentrations (5*10^10, 1*10^10, 1*10^9 particles per ml) simultaneously with antibody Col-1. In a final step, bound Col-1 antibody was detected by a peroxidase-labeled anti-mouse antibody. TMB substrate (BD Biosciences, San Diego, Calif.) was added for development of the colour and signal intensity measured in ELISA reader at OD450-630. […] This assay evidenced that selected mimotopes are mimics of the Col-1 epitope on CEA antigen.
Background: ELISA stands for enzyme-linked immunosorbent assay.

Series [5] has as its target CEA antigen (human purified; Sigma, St. Louis) (human) (UniProt P06731). The series is described as follows: ELISA, CEA coated, bound Col-1 detected with anti-mouse IgG-peroxidase (FIG. 3).

Bridge positions count the residues as written; N and C are the ends. Ends that are not written are not given here.

Sequence of UniProt P06731 (P06731 35-685 limits assumed): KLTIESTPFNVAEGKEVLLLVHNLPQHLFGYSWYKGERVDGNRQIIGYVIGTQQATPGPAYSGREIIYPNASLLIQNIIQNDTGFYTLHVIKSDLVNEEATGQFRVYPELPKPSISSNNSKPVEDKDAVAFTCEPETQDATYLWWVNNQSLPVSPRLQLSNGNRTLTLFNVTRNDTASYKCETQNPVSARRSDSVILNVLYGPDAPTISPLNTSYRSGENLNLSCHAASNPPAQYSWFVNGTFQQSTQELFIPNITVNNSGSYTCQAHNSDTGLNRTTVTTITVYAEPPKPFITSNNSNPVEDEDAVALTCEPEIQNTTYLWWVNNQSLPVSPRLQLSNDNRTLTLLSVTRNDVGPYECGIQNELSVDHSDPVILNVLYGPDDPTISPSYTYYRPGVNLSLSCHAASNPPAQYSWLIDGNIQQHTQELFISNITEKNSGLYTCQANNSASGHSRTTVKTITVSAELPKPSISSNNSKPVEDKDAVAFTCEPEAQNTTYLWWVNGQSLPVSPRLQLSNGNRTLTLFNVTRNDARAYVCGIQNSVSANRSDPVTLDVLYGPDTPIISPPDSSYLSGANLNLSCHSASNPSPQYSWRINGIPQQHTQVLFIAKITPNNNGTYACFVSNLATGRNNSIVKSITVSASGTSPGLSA

For `CC(C)C[C@H](NC(=O)CNC(=O)CNC(=O)[C@H](CCCNC(=N)N)NC(=O)[C@@H](N)CC(=O)O)C(=O)N[C@@H](Cc1c[nH]c2ccccc12)C(=O)N[C@@H](CCCCN)C(=O)N[C@H](C(=O)N1CCC[C@H]1C(=O)NCCCC[C@H](NC(=O)[C@@H]1CCCN1C(=O)[C@@H](NC(=O)[C@H](CCCCN)NC(=O)[C@H](Cc1c[nH]c2ccccc12)NC(=O)[C@H](CC(C)C)NC(=O)CNC(=O)CNC(=O)[C@H](CCCNC(=N)N)NC(=O)[C@@H](N)CC(=O)O)[C@@H](C)O)C(=O)NCCCC[C@H](NC(=O)[C@H](CCCCNC(=O)[C@@H]1CCCN1C(=O)[C@@H](NC(=O)[C@H](CCCCN)NC(=O)[C@H](Cc1c[nH]c2ccccc12)NC(=O)[C@H](CC(C)C)NC(=O)CNC(=O)CNC(=O)[C@H](CCCNC(=N)N)NC(=O)[C@@H](N)CC(=O)O)[C@@H](C)O)NC(=O)[C@@H]1CCCN1C(=O)[C@@H](NC(=O)[C@H](CCCCN)NC(=O)[C@H](Cc1c[nH]c2ccccc12)NC(=O)[C@H](CC(C)C)NC(=O)CNC(=O)CNC(=O)[C@H](CCCNC(=N)N)NC(=O)[C@@H](N)CC(=O)O)[C@@H](C)O)C(=O)NCC(=O)NCC(=O)N[C@@H](CSCC(=O)NCCCCCCNC(=O)CSC[C@H](NC(=O)CNC(=O)CNC(=O)[C@H](CCCCNC(=O)[C@H](CCCCNC(=O)[C@@H]1CCCN1C(=O)[C@@H](NC(=O)[C@H](CCCCN)NC(=O)[C@H](Cc1c[nH]c2ccccc12)NC(=O)[C@H](CC(C)C)NC(=O)CNC(=O)CNC(=O)[C@H](CCCNC(=N)N)NC(=O)[C@@H](N)CC(=O)O)[C@@H](C)O)NC(=O)[C@@H]1CCCN1C(=O)[C@@H](NC(=O)[C@H](CCCCN)NC(=O)[C@H](Cc1c[nH]c2ccccc12)NC(=O)[C@H](CC(C)C)NC(=O)CNC(=O)CNC(=O)[C@H](CCCNC(=N)N)NC(=O)[C@@H](N)CC(=O)O)[C@@H](C)O)NC(=O)[C@H](CCCCNC(=O)[C@@H]1CCCN1C(=O)[C@@H](NC(=O)[C@H](CCCCN)NC(=O)[C@H](Cc1c[nH]c2ccccc12)NC(=O)[C@H](CC(C)C)NC(=O)CNC(=O)CNC(=O)[C@H](CCCNC(=N)N)NC(=O)[C@@H](N)CC(=O)O)[C@@H](C)O)NC(=O)[C@@H]1CCCN1C(=O)[C@@H](NC(=O)[C@H](CCCCN)NC(=O)[C@H](Cc1c[nH]c2ccccc12)NC(=O)[C@H](CC(C)C)NC(=O)CNC(=O)CNC(=O)[C@H](CCCNC(=N)N)NC(=O)[C@@H](N)CC(=O)O)[C@@H](C)O)C(=O)O)C(=O)O)[C@@H](C)O` [CEA-mimotope MAP], the CDC cytotoxicity in series [1] (pooled fifth immune sera of immunized mice diluted 1:50) was 100%; in series [1] (pooled fifth immune sera of immunized mice diluted 1:100), 51%. In series [2], this molecule had an ADCC cytotoxicity of 50%. Moreover, the “cytotoxic reaction on CEA negative cells” value in series [3] is “no reaction”.
Take “C-RLALGDAKKY-C (CRLALGDAKKYC; disulfide 1-12; not fully specified; printed as C-RLALGDAKKY-C) [COL4, CEA mimotope selected from phage library with antibody Col-1]”: the “competition of phage-displayed mimotope with CEA for binding to Col-1” value in series [4] was “best candidate”.

B1: monoclonal antibody Col-1 (Zymed Lab., San Francisco, Calif.) (antibody, from another filing, V domains shown)
VH: EVQLQQSGAELVRSGASVKMSCTASGFNIKDYYMHWVKQRPEQGLEWIGWIDPENGDTEYAPKFQGKATMTTDTSSNTAYLQLSSLTSEDTAVYYCNTRGLSTMITTRWFFDVWGAGTTVAVSS
VL: DIVLTQSPASLTVSLGLRATISCRASKSVSASGYSYMHWYQQRPGQPPKLLIYLASNLQSGVPARFSGSGSGTDFTLNIHPVEEEDAATYYCQHSRELPTFGGGTKLEIK
Molecule B1 returned a maximal signal (OD450-630 nm) in series [5] of 1.4 OD450-630 nm.
